The results in this text go back to patent publication US20100075907A1, “NEUROMEDIN U RECEPTOR AGONISTS AND USES THEREOF” (priority 2006, published 2010).

A value given as a limit tells only on which side of the number the result lay.

The data set is described as follows: in vitro. The following applies: human, plasma.

As for “H-FRVDEEFQSPFASQSRGYFLFRPRN-NH2 [hNMU-25, reference compound]”, the half-life (usually how long it takes for the measured level to halve) at 1 μM was less than 16 h.
